Consider 3 compounds from patent US20050208542A1, “Methods of genotoxicity screening, and biosensors” (priority 2004, published 2005).

One data set deals with CT-ds-DNA. As to the kind of experiment: SWV of Ru/Mb/DNA films (PSS/ClRu-PVP/CT-ds-DNA/(Mb/CT-ds-DNA)2) after incubation. The following applies: for SWV peak current at 0.75 V: saturated styrene or toluene and H2O2, pH 5.5.
A further data set deals with ds-CT DNA. The data set is described as follows: ECL/SWV of (Ru-PVP/ds-DNA)2 films after incubation. The following applies: saturated solution, 37° C., pH 5.5. As to the method:
Film assembly. DNA-redox polymer films were constructed by the layer-by-layer electrostatic assembly method. Basal plane PG electrodes were polished with 400 grit SiC paper and then with 0.3 μm α-alumina slurries on Buehler Microcloth, washed with water, sonicated in ethanol for 15 minutes, and then sonicated in water for 15 minutes. Layers were constructed by placing a 30 μL drop of 0.2% aqueous [Ru(bpy)2(PVP)10](CIO4)2 onto each PG electrode, allowing 15 minutes to achieve saturated adsorption and then washing with water. Subsequently, 30 μL of DNA solution (2 mg mL^−1 DNA in 5 mM pH 5.5 acetate buffer+0.05 M NaCl) was place on this PG surface, allowed to adsorb 15 min, and then washed with water. This sequence was repeated to obtain films with 2 redox polymer/DNA bilayers. Films containing ss-DNA and other polynucleotides were also assembled in this way. Assembly of films was monitored at each step with a quartz crystal microbalance.
Reactions with Styrene Oxide. Incubations of films were done in styrene oxide solutions in a stirred reactor at 37.0±0.5° C. […] PG electrodes coated with polynucleotide or DNA films were incubated in the stirred emulsion and then rinsed with water and transferred to the electro-chemical cell containing pH 5.5 buffer for SWV/ECL analysis.
Error bars in FIGS. 22, 23 are mainly the result of electrode-to-electrode variability.

Another data set deals with poly[G]. As to the kind of experiment: ECL/SWV of (Ru-PVP/poly[G])2 films after incubation. In kind it is biochemical. The following applies: 10 minutes incubation, saturated solution. As to the method:
Reactions with Styrene Oxide.
In addition to catalytic oxidation of guanines, it is possible that adducts formed on DNA by reaction with styrene oxide could be catalytically oxidized by the ruthenium metallopolymer. To assess this possibility, styrene oxide was incubated with films containing individual polynucleotides and the metallopolymer. […] An 80% increase in SWV peak current and a 40% increase in ECL intensity was found.

A further data set deals with ds-CT-DNA. The data set is described as follows: SWV with Co(bpy)3^3+ electroactive probe, PDDA/ds-CT-DNA(cyt P450cam/ds-CT-DNA)2 films. The following applies: 4% styrene + 2 mM H2O2.
Data set [1] relates to ds-DNA. As to the kind of experiment: SWV with Co(bpy)3^3+ electroactive probe, PDDA/ds-DNA(/Mb/ds-DNA)2 films. The class given is biochemical, calf thymus (CT), salmon testes (ST).
Experimental: (§2) Film construction. Films were grown on PG disks (pyrolytic graphite) that had been abraded on 400 grit SiC paper, then with coarse Emery paper (3M Crystal Bay), then ultrasonicated in water for 30 seconds. Layers of ds-DNA and protein were adsorbed alternately for 15 minutes onto the rough PG electrodes, and washed with water between adsorption steps. Adsorbate solutions were: (a) 2 mg mL^−1 DNA in 5 mM pH 7.1 TRIS buffer and 0.50 M NaCl; (b) 2 mg mL^−1 PDDA in 50 mM NaCl; (c) 3 mg mL^−1 Mb in 10 mM pH 5.5 acetate buffer; and (d) 1 mg mL^−1 cyt P450cam in the pH 5.5 buffer. Film of architecture denoted PDDA/DNA(/Mb/DNA)2 or PDDA/DNA(/cyt P450cam/DNA)2 were employed.
(§3) Incubation of DNA/protein films for metabolite generation and reaction with DNA was done in a thermostated vessel at 37° C. containing 1-4% styrene (by volume). To activate the enzymes for styrene oxide formation, 0.2 to 2 mM H2O2 was added to 10 mL pH 5.5 buffer containing 50 mM NaCl. […] For the probe binding method, washed electrodes were transferred to pH 5.5 buffer containing 20 μM Co(bpy)3^3+.
(§4) Voltammetry. CH Instruments 660A and CH 430 electrochemical analyzers were used for square wave voltammetry (SWV), with ˜95% ohmic drop compensated. […]
(§5) The time course of the reaction can readily be monitored via the ratio of initial SWV peak current for a given film (Ip,i) to that after reaction (Ip,f). […]
In the next data set the test system is ST-ds-DNA. As to the kind of experiment: Catalytic SWV with Ru(bpy)3^2+ of DNA(Cyt P450cam/ST-ds-DNA)2 films after incubation.
Data set [2] deals with ds-DNA. The data set is described as follows: Catalytic SWV with Ru(bpy)3^2+ of PDDA/ds-DNA(/Mb/ds-DNA)2 films after incubation. The class given is biochemical, calf thymus (CT), salmon testes (ST).
For the next data set, the system named is ds-ST-DNA. The data set is described as follows: HPLC-MS/MS of hydrolyzed DNA reacted with styrene oxide. The class given is biochemical, salmon testes. The following applies: ds-ST-DNA incubated with styrene oxide 48 hours at 37° C., HPLC-MS/MS (MRM). As to the method: (§1) Capillary electrophoretic analysis. A Beckman PACE 5000 with UV detector at 254 nm was used for capillary electrophoresis (CE) to analyze hydrolyzed DNA that had been reacted with styrene oxide. 1 mg mL^−1 ST ds-DNA in 50 mL buffer or (PDDA/DNA)2 films on 3×10 cm carbon cloth in solution were reacted in 50 mL buffer and 0.87 mmol styrene oxide at 37° C. with stirring. Reacted DNA in solution or in films was hydrolyzed by incubating with deoxyribonuclease I (0.1 mg per mg of DNA) for 20 hr at 37° C., followed by incubation with phosphodiesterase I (0.01 unit/mg DNA) and phosphatase, alkaline (0.6 unit/mg DNA) for 5 hours at 37° C. The resulting samples, consisting mainly of individual nucleosides, were analyzed using CE with 20 mM pH 7 phosphate buffer and 100 mM SDS. The capillary was 75 μm×50 cm, with a polyimide coating. To make standard styrene oxide adducts, 0.5 mg mL^−1 guanosine or adenosine were reacted with styrene oxide.
Liquid chromatography (LC)-mass spectrometry (MS). A Perkin-Elmer LC with diode-array (255 nm and 280 nm) and mass spectrometer (Micromass, Quattro II) detection were used. Full-scan spectra were taken at low cone voltage (15 V) in the positive ion mode (ESI). The HPLC column was Restek Ultra C-18 reversed-phase (i. d. 2.1 mm, length 10 cm, particle size 5 μm). Solvents were A: 5% acetonitrile/95% water with 0.05% TFA and B: 100% acetonitrile with 0.05% TFA. […]

For the next data set, the system named is ST ds-DNA. As to the kind of experiment: Capillary electrophoretic analysis of hydrolyzed DNA reacted with styrene oxide. In kind it is biochemical, salmon testes. The following applies: (PDDA/DNA)2 film on carbon cloth, saturated styrene oxide, 48 hr, 37° C., compared with undamaged hydrolyzed DNA. As to the method: as §1
It was previously shown that that styrene oxide is formed from styrene using Mb and cyt P450cam films. However, available capillary electrophoresis and HPLC-MS/MS methods were not sensitive enough to detect and identify damaged DNA directly from the protein-DNA films. Thus, capillary electrophoresis and HPLC-MS were used to confirm that reaction of styrene oxide with DNA in (PDDA/DNA)2 films and in solution gave the reported DNA-styrene oxide adducts. […]

Experimental for CT-ds-DNA: Film Assembly. Basal plane PG electrodes were polished with 400-grit SiC paper and then ultrasonicated for 30 seconds each in ethanol and then in water. Electrodes were dried in nitrogen and dipped into 6 mg mL^−1 PSS containing 0.5 M NaCl for 15 min. After washing with water, these PG electrodes were then dipped into 0.05% (m/V) [Ru(bpy)2(PVP)10Cl)]Cl (denoted hereafter as CIRu-PVP) in 5% ethanol/water for 15 minutes. Adsorption for 15 min provides steady-state adsorption of PSS on oppositely charged surfaces.^18, 19
After fabricating PSS/CIRu-PVP films, electrodes were dipped into 2 mg mL^−1 CT ds-DNA in pH 7.0 Tris buffer containing 0.5 M NaCl for 15 min, rinsed with water, and then dipped into 2 mg mL^−1 PDDA. Alternate adsorption cycles were repeated until the desired number of layers were made. Final film structure is denoted as PSS/CIRu-PVP/CT-ds-DNA/PDDA/CT-ds-DNA.
For films containing Mb, PG electrodes were abraded with 400-grit SiC paper, rinsed with water, further roughened using medium Crystal Bay emery paper (PH4 3M 001K), and then ultrasonicted in ethanol and water successively for 30 seconds. […] Additional steps were the same as above except PDDA was replaced with 3 mg mL^−1 Mb in pH 5.5 buffer. Final film structure is denoted as PSS/CIRu-PVP/CT-ds-DNA/(Mb/CT-ds-DNA)2. Electrochemical surface area was estimated at 0.21 cm^2 using peak currents of soluble ferricyanide and the Randles-Sevcik equation.
H2O2 activates Mb to oxidize styrene to styrene oxide.
Experimental for ST-ds-DNA: as §2
Incubation of DNA/protein films for metabolite generation and reaction with DNA was done in a thermostated vessel at 37° C. containing 1-4% styrene (by volume). To activate the enzymes for styrene oxide formation, 0.2 to 2 mM H2O2 was added to 10 mL pH 5.5 buffer containing 50 mM NaCl. After incubation, the electrodes were rinsed with water and transferred to pH 5.5 buffer containing 50 μM Ru(bpy)3^2+ for analysis by catalytic SWV.
as §4
Experimental for ds-CT-DNA: as §2, §3
CH Instruments 660A and CH 430 electrochemical analyzers were used for square wave voltammetry (SWV), with ˜95% ohmic drop compensated. […]
as §5

In the case of `Cc1ccccc1` [toluene], in the data set on CT-ds-DNA, the “SWV peak current at 0.75 V” value is recorded as “did not show increases”. Moreover, in the data set on ds-CT DNA, the “ECL peak vs. incubation time” value is on record as “showed no trends with incubation time” and the “SWV peak vs. incubation time” value is on record as “showed no trends with incubation time”. In the data set with poly[G], the “Increase in ECL intensity” value is listed as “nearly identical to initial values” and the “Increase in SWV peak current” value is given as “nearly identical to initial values”.
With `C=Cc1ccccc1` [styrene], the “Ratio of final peak current after incubation to initial peak current” value in the data set on CT-ds-DNA (saturated styrene and H2O2, pH 5.5) was “showed an increase over the first 15 minutes and then decreased gradually”. In addition, the “SWV peak current at 0.75 V” value with CT-ds-DNA was “increased”. For the same compound, in the data set on ds-CT-DNA, the “Slope of Ip,i/Ip,f peak ratio vs. time, compared with Mb films” value is given as “smaller slopes”. The “Ip,i/Ip,f peak current ratio vs. reaction time” value with ds-DNA [1] (Mb films, 4% styrene or 4% toluene + 2 mM hydrogen peroxide, over 45 min) was “linear increases”. The “SWV peak height for reduction of Co(bpy)3^3+ at 0.04 V vs. SCE” value in the data set with ds-DNA [1] (Mb/ST-ds-DNA films, 4% styrene and 2 mM H2O2, 37° C., pH 5.5, 20 μM Co(bpy)3^3+) is “decreased with incubation time”. Also, the “Rate of increase of SWV peak current, less than with Mb/ST-DNA films” value with ST-ds-DNA (cyt P450cam films versus Mb/ST-DNA films, styrene and hydrogen peroxide) is recorded as “about 30%”. The “SWV catalytic peak current (DNA damage)” value in the data set with ST-ds-DNA (cyt P450cam/ST-ds-DNA films, 2% styrene + 0.2 mM H2O2, 50 μM Ru(bpy)3^2+) was “rapid increase in SWV peak current for the first five minutes was followed by a slower increase from 5-30 minutes”. In addition, the “Dependence of catalytic SWV peak height on styrene concentration” value in the data set with ds-DNA [2] (Mb/DNA films activated by H2O2, styrene 1-4%) was “did not depend on styrene concentration between 1-4%”. Further, the “Catalytic SWV oxidation peak current (DNA damage)” value with ds-DNA [2] (Mb/DNA films, 37° C., pH 5.5, with 0.2 mM H2O2, 2% styrene, 2% toluene or 0.2 mM benzaldehyde, read in 50 μM Ru(bpy)3^2+) is listed as “increased with reaction time”; in the data set on ds-DNA [2] (ST-DNA/Mb films, 2% styrene but no H2O2), “No significant increases in peak current or trends with incubation time”.
On to `c1ccc(C2CO2)cc1` (stereo not drawn) [styrene oxide], for which the “Number of styrene oxide adducts each for dA and dG” value with ds-ST-DNA is reported as “at least 4”. Besides, in the data set with ds-CT DNA, the “ECL peak vs. incubation time” value is “increases in the ECL and the SWV peaks were observed with increasing incubation time”; the “SWV peak vs. incubation time” value is “increases in the ECL and the SWV peaks were observed with increasing incubation time”. In the data set with poly[G], the “Increase in ECL intensity” value was 40% and the “Increase in SWV peak current” value is listed as 80%. In the data set with ST ds-DNA, the “DNA-styrene oxide adduct peaks in capillary electropherogram” value is reported as “new peaks evident”.
